Legend:
[1] = target: Norepinephrine transporter (Rattus norvegicus, UniProt Q9JIA2)
[2] = target: Sodium-dependent serotonin transporter (Rattus norvegicus, UniProt P31652)
[3] = target: Sodium-dependent dopamine transporter (Rattus norvegicus, UniProt P23977)
Sodium-dependent dopamine transporter, sequence (P23977 whole entry): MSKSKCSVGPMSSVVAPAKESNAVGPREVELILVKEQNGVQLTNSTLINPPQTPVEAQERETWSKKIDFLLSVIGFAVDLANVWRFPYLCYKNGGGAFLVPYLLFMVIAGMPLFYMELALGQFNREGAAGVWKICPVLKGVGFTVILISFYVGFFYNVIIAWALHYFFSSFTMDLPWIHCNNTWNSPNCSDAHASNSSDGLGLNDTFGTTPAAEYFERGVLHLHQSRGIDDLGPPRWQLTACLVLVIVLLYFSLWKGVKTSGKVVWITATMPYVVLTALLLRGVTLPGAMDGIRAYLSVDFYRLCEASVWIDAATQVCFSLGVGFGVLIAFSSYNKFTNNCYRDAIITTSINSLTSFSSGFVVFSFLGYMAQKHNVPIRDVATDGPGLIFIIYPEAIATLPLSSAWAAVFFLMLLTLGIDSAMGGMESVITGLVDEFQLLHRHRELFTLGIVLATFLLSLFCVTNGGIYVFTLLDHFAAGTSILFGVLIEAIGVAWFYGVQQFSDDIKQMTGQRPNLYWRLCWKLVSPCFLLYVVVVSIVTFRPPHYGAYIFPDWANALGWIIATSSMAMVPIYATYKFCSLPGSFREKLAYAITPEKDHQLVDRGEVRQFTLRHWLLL

Sodium-dependent serotonin transporter, sequence (P31652 whole entry): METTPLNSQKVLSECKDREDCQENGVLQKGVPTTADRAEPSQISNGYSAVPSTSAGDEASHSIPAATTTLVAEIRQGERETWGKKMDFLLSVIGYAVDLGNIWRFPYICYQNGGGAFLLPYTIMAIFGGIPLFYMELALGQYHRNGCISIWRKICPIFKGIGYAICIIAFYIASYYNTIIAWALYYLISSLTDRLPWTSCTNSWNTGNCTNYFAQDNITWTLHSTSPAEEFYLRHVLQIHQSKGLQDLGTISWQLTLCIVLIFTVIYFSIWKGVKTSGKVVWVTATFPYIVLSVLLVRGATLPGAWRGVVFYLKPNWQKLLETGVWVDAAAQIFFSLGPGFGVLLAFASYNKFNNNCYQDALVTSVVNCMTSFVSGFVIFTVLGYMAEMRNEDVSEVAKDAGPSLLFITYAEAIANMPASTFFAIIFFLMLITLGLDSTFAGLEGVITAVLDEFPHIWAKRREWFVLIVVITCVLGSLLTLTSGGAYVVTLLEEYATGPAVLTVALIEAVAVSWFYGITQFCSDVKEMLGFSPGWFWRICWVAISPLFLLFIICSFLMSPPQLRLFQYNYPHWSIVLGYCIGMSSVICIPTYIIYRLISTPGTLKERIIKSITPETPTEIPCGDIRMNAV

Row | Compound | Ki [1] | Ki [2] | Ki [3]
1 | COC(=O)[C@H](c1ccccc1)[C@H]1CCCCN1 [methyl (2R)-phenyl[(2R)-piperidin-2-yl]acetate] | 0.126 µM | > 10 µM | 
2 | CCn1cc(C(=O)O)c(=O)c2ccc(Cc3ccccc3)nc21 | > 10 µM |  | 0.0187 µM
3 | C[C@H](N)Cc1ccccc1 [beta-aminopropylbenzene] | 1 µM |  | 
4 | CNCCC(Oc1ccccc1OC)c1ccccc1 (stereo not drawn) [3-(2-methoxyphenoxy)-N-methyl-3-phenylpropan-1-amine] | 0.00046 µM |  | 
5 | COCCCC/C(=N\OCCN)c1ccc(C(F)(F)F)cc1 [(1E)-5-methoxy-1-[4-(trifluoromethyl)phenyl]pentan-1-one O-(2-aminoethyl)oxime] | 5 µM |  | > 10 µM
